Among the data in patent US6693102B2, “Pyridine-substituted pyrazolopyridine derivatives” (Bayer Aktiengesellschaft, priority 2000, dated 2004) are IC50 values, retold here.

This assay concerns rabbit aorta rings. The experiment in a line: Vasorelaxant action in vitro (phenylephrine-contracted rabbit aorta rings). To be noted: Oryctolagus cuniculus, phenylephrine contraction, 37° C., 0.1% DMSO. On the procedure: Rabbits are stunned by a blow to the neck and exsanguinated. The aorta is removed, freed from adherent tissue, divided into rings 1.5 mm wide and individually transferred under a pretension to 5 ml organ baths containing carbogen-aerated Krebs-Henseleit solution of the following composition (mM) at 37° C.: NaCl: 119; KCl: 4.8; CaCl2×2H2O: 1; MgSO4×7H2O; 1.4; KH2PO4: 1.2; NaHCO3:25; Glucose: 10. The contractile force is determined using Statham UC2 cells, amplified and digitalized by means of A/D converters (DAS-1802 HC, Keithley Instruments Munich), and recorded in parallel on linear recorders. To produce a contraction, phenylephrine is added to the bath cumulatively in increasing concentration. After several control cycles, the substance to be investigated is investigated in each further passage in increasing dose in each case and the height of the contraction is compared with the height of the contraction reached in the last previous passage. From this, the concentration is calculated which is necessary in order to reduce the height of the control value by 50% (IC50). The standard administration volume is 5 μl and the proportion of DMSO in the bath solution corresponds to 0.1%.

Structures are written as SMILES.

One may read the IC50 as the concentration that inhibits the measured activity by half. A lower IC50 goes with higher potency. In turn, `Nc1nc(-c2nn(Cc3ccccc3F)c3ncccc23)ncc1-c1ccncc1` [Example 1, 2-[1-[(2-Fluorophenyl)methyl]-1H-pyrazolo[3,4-b]pyridin-3-yl]-5-(4-pyridinyl)-4-pyrimidinamine] registered an IC50 of 0.66 µM.

`Nc1nc(-c2nn(Cc3ccccc3F)c3ncccc23)nc(N)c1-c1ccncc1` [Example 4, 2-[1-(2-fluorobenzyl)-1H-pyrazolo[3,4-b]pyridine-3-yl]-5-(4-pyridinyl)-4,6-pyrimidine diamine] had a concentration for half-maximal inhibition (IC50) of 1.21 µM.
